This assay deals with T1, bovine thymus vitamin D receptor (VDR) (Bos taurus, UniProt Q28037).
T1 sequence (Q28037 1-426): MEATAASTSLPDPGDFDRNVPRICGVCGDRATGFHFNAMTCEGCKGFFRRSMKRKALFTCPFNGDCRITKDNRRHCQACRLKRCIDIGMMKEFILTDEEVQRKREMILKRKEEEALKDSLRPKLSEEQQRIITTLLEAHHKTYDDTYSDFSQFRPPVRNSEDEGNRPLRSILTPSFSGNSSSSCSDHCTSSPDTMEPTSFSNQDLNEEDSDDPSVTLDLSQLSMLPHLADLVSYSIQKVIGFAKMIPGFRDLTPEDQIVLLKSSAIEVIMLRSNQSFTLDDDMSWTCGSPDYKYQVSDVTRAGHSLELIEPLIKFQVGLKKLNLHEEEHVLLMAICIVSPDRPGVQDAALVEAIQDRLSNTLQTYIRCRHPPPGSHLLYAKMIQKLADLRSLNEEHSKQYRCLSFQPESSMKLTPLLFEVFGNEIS
Particulars: relative value with 1α,25-dihydroxyvitamin D3 taken as 100; ratio of concentrations inhibiting 50% of [3H]-1α,25-dihydroxyvitamin D3 binding (0.1 nM tracer, overnight at 4° C.).

Procedure: Each of the resultant supernatants (500 μl) was mixed with ACS-II (9.5 ml) ([sequence], England) for radioactivity measurement.
X: relative VDR binding property of the vitamin D derivative of the present invention

In the case of “(5Z,7E)-(1S,2S,3R,20R)-2-(3-hydroxypropoxy)-9,10-seco-5,7,10(19)-cholestatriene-1,3,25-triol [Compound 16]”, the “relative VDR binding property X=(y/x)×100” value amounted to 180.
